This is an account of results in publication PMC2872594 (Clinical Medicine. Oncology, 2009).

Like-named read-outs stand apart in the source and are kept apart here.

In data set [1] the target is T1, dihydrofolate reductase (DHFR) (Homo sapiens, UniProt P00374).
T1 construct: purchased Sigma Aldrich
T1 sequence (P00374 1-187): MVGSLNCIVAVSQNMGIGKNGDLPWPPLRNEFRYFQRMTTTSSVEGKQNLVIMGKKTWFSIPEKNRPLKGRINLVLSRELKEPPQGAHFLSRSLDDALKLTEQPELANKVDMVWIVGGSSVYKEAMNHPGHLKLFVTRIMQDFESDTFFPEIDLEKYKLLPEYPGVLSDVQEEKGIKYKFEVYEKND
Kind of data set: In vitro, cell free DHFR inhibition assay. The data set is classed as biochemical. Conditions: cell free colorimetric assay, absorbance over 2.5 minutes. The procedure: In vitro, cell free DHFR inhibition assay
The DHFR calorimetric assay was purchased from Sigma Aldrich, and was performed according to instructions. Briefly, DHFR was mixed with inhibitor and NADPH.
The percent of control was plotted, and a fit using a power regression line used.

The next data set relates to A2780/AD cells. The experiment in a line: In vitro cytotoxicity (WSK-8) assay. Type of data set: cell-based. How it is done: In vitro cytotoxicity (WSK-8) assays
The proliferation of exponential phase cultures of A2780/AD cells was assessed by colorimetric assay (WSK-8). In brief, cells were plated onto a 96 well microtiter plates at 5,000 cells per well. After a 24 hour incubation period to facilitate adherence, the RPMI media was removed and replaced with 100 or 200 μL of fresh media containing the different concentrations of drug. The cells were then incubated for 1 or 3 days at 37 °C at 95% humidity and 5% CO2. The media was then removed, and replaced with 100 μL fresh media containing 10% WSK-8 dye. The plates were incubated for 1.5 hours and subsequently measured at 450 nm with a 96-well plate reader. A non-linear curve fitted to the concentrations tested was used and the data plotted using Origin software. Each concentration was run in triplicate, and drug was tested 3 times.

A short description of data set [2]: Stability study in PBS buffer (HPLC). The data set is classed as physicochemical. Conditions: phosphate buffered saline pH 7.4, 37 °C. The procedure:
To explain the in vitro results, the stability of the compounds was examined. (3) was dissolved in phosphate buffered saline at a pH of 7.4, and incubated at 37 °C. Time points were taken at 24 and 72 hours. […] While not completely stable over the time tested, the stability of the carbamate linkage could be preventing the nucleoside from being released in the cell over the earlier time points. This is consistent with previous nucleoside conjugate work reported and the observation that (2) and (3) have a greater toxicity at 72 hours than the carrier system (1). The delay in the release could explain the discrepancies between the conjugated and the unconjugated systems.
(3) was dissolved in PBS buffer 1 at pH 7.4 in a concentration of [l mM]. The solution was incubated at 37 °C for 24 and 72 hours. Samples from the solution were examined using the HPLC Eclipse XDB C18 analytical column (4.6 × […]; Agilent Technologies). The method conditions were the same as the purification with a flow rate of 0.7 ml/min.

Data set [3] has as its system reduced folate carrier (RFC). The following applies: cited from earlier work.
For another data set, the system named is folate receptor (FR). The following applies: cited from earlier work.
The mark [4] stands for this setting: A2780/AD ovarian cancer cell line, 24 hours incubation, folate deficient media, read-out: In vitro IC50, 24 hours.
[5] abbreviates: A2780/AD ovarian cancer cell line, 72 hours incubation, folate deficient media, read-out: In vitro IC50, 72 hours.
Where [6] appears, read: A2780AD, 24 h, read-out: In vitro IC50, 24 hours.
Where [7] appears, read: A2780AD, 72 h, read-out: In vitro IC50, 72 hours.

As for γ-MTX-PEG-ddC [Compound 4], the IC50 (as a rule, the concentration needed to halve the response being measured) is 178 µM in data set [1], over 1000 µM with A2780/AD cells (setting [4]) and 960 ± 80 µM in the data set with A2780/AD cells (setting [5]).
As for γ-MTX-PEG-IUdR [Compound 3], the IC50 in data set [1] is 394 µM; with A2780/AD cells (setting [4]) it was over 1000 µM; with A2780/AD cells (setting [5]), 211 ± 100 µM. Besides, the “Stability, free nucleoside after 24 hours” value in data set [2] (24 hours) is reported as “no sign of free nucleoside”. In addition, the “Stability, free nucleoside after 72 hours” value in data set [2] (72 hours) was “partial decomposition”.
As to `Nc1nc(=O)c2nc(CNc3ccc(C(=O)N[C@@H](CCC(=O)O)C(=O)O)cc3)cnc2[nH]1` [Folate, Folic acid], the Km (usually the concentration of substrate that gives half-maximal velocity) in data set [3] is 200 to 400 µM.
Regarding γ-MTX-PEG-NH2 [Compound 1], the values for the IC50 (in data set [1]; with A2780/AD cells (setting [4]); with A2780/AD cells (setting [5])) were 200 µM, over 1000 µM and 700 ± 100 µM, respectively.
In the same order, the values of γ-MTX-PEG-AZT [Compound 2] are 152 µM, over 1000 µM and 430 ± 30 µM.
On to `Cc1cn([C@H]2C[C@H](N=[N+]=[N-])[C@@H](CO)O2)c(=O)[nH]c1=O` [AZT, 3’-Azido-3’-deoxythymidine, reference compound], for which the IC50 in the data set on A2780/AD cells (setting [6]) was over 10000 µM; with A2780/AD cells (setting [7]), 8000 ± 1000 µM.
Turning to `CN(Cc1cnc2nc(N)nc(N)c2n1)c1ccc(C(=O)N[C@@H](CCC(=O)O)C(=O)O)cc1` [MTX, Methotrexate], in the data set on folate receptor (FR) (relative to folate), the “Lower affinity of FR for MTX over folate” value is listed as “approximately 100 fold”. For the same compound, in the data set with folate receptor (FR) (relative to oxidized folate), the “Less affinity for the FR than oxidized folate” value is 100 fold. In data set [3], the Km is 5 to 10 µM. In addition, the “Greater affinity for the RFC over folate” value in data set [3] (relative to folate) is reported as 100 times. For the same compound, the figures for the IC50 in the data set on A2780/AD cells (setting [6]) and in the data set with A2780/AD cells (setting [7]) were over 10000 µM and 7000 ± 900 µM, respectively.
